Assay results as given in ChEMBL document CHEMBL5316333, “Potent Long-Acting Inhibitors Targeting the HIV-1 Capsid Based on a Versatile Quinazolin-4-one Scaffold” (J Med Chem, 2023).
Converted amounts (≈) assume the structure as drawn.

Tests used:
[1] = system: Human immunodeficiency virus 1; experiment: Antiviral activity against HIV-1 NLRep-Rluc infected in human MT2 cells assessed as inhibition of viral growth incubated for 96 hrs by renilla luciferase assay; format: functional, organism-based; conditions: Human immunodeficiency virus 1, NLRep-Rluc, MT2, 96 h
[2] = Clearance in Sprague-Dawley rat at 1 mg/kg, iv and measured upto 96 hrs by LC-MS/MS analysis; format: ADME, organism-based; conditions: in vivo
[3] = Solubility of the compound at pH 2 buffer; format: physicochemical
[4] = Solubility of the compound at pH 6.5 buffer; format: physicochemical
[5] = Solubility of the compound in FaSSGF at pH 1.6; format: physicochemical
[6] = Solubility of the compound in FaSSIF at pH 6.5; format: physicochemical
[7] = Solubility of compound in FeSSIF at pH 5; format: physicochemical
[8] = Plasma concentration in Wistar Han rat at 20 mg/kg, SC and measured at 21 days by LC-MS/MS analysis; format: ADME, organism-based; conditions: time 21 day
[9] = Plasma concentration in Wistar Han rat at 20 mg/kg, IM and measured at 21 days by LC-MS/MS analysis; format: ADME, organism-based; conditions: time 21 day
[10] = Plasma concentration in Beagle dog at 5 mg/kg, IM and measured after 10 days by LC-MS/MS analysis; format: ADME, organism-based, Canis lupus familiaris; conditions: time 10 day
[11] = Plasma concentration in Beagle dog at 5 mg/kg, SC and measured after 10 days by LC-MS/MS analysis; format: ADME, organism-based, Canis lupus familiaris; conditions: time 10 day
[12] = Half life in Wistar Han rat plasma at 1 mg/kg,iv and measured upto 96 hrs by LC-MS/MS analysis; format: ADME, organism-based
[13] = Half life in Wistar Han rat plasma at 20 mg/kg, SC and measured after 21 days by LC-MS/MS analysis; format: ADME, organism-based; conditions: time 21 day
[14] = Half life in Wistar Han rat plasma at 20 mg/kg, IM and measured after 21 days by LC-MS/MS analysis; format: ADME, organism-based; conditions: time 21 day
[15] = AUC (0 to 24) in male Beagle dog at 100 mg/kg, po QD and measured after 1 day by LC-MS/MS analysis; format: ADME, organism-based, Canis lupus familiaris; design: dose 100 mg/kg, time 1 day, route po; conditions: in vivo
[16] = AUC (0 to 24) in female Beagle dog at 100 mg/kg, po QD and measured after 1 day by LC-MS/MS analysis; format: ADME, organism-based, Canis lupus familiaris; design: time 1 day, dose 100 mg/kg, route po; conditions: in vivo
[17] = AUC (0 to 24) in male Beagle dog at 100 mg/kg, po QD and measured after 7 days by LC-MS/MS analysis; format: ADME, organism-based, Canis lupus familiaris; design: dose 100 mg/kg, time 7 day, route po; conditions: in vivo
[18] = AUC (0 to 24) in female Beagle dog at 100 mg/kg, po QD and measured after 7 days by LC-MS/MS analysis; format: ADME, organism-based, Canis lupus familiaris; design: dose 100 mg/kg, time 7 day, route po; conditions: in vivo
[19] = Cmax in male Beagle dog at 100 mg/kg, po QD and measured after 1 day by LC-MS/MS analysis; format: ADME, organism-based, Canis lupus familiaris; design: time 1 day, dose 100 mg/kg, route po; conditions: in vivo
[20] = Cmax in female Beagle dog at 100 mg/kg, po QD and measured after 1 day by LC-MS/MS analysis; format: ADME, organism-based, Canis lupus familiaris; design: dose 100 mg/kg, time 1 day, route po; conditions: in vivo
[21] = Cmax in male Beagle dog at 100 mg/kg, po QD and measured after 7 days by LC-MS/MS analysis; format: ADME, organism-based, Canis lupus familiaris; design: dose 100 mg/kg, time 7 day, route po; conditions: in vivo
[22] = Cmax in female Beagle dog at 100 mg/kg, po QD and measured after 7 days by LC-MS/MS analysis; format: ADME, organism-based, Canis lupus familiaris; design: time 7 day, dose 100 mg/kg, route po; conditions: in vivo
[23] = Toxicity in male Beagle dog assessed as fold increase in AST level […] at 100 mg/kg, po QD for 7 days relative to baseline pretreatment; format: organism-based, Canis lupus familiaris; conditions: in vivo, 168 h, time 7 day
[24] = Toxicity in male Beagle dog assessed as fold increase in ALT level […] at 100 mg/kg, po QD for 7 days relative to baseline pretreatment; format: organism-based, Canis lupus familiaris; conditions: in vivo, 168 h, time 7 day
[25] = Toxicity in male Beagle dog assessed as fold increase in ALP level […] at 100 mg/kg, po QD for 7 days relative to baseline pretreatment; format: organism-based, Canis lupus familiaris; conditions: in vivo, 168 h, time 7 day
[26] = Toxicity in male Beagle dog assessed as fold increase in GLDH level […] at 100 mg/kg, po QD for 7 days relative to baseline pretreatment; format: organism-based, Canis lupus familiaris; conditions: in vivo, 168 h, time 7 day
[27] = Toxicity in male Beagle dog assessed as fold increase in TBA level […] at 100 mg/kg, po QD for 7 days relative to baseline pretreatment; format: organism-based, Canis lupus familiaris; conditions: in vivo, 168 h, time 7 day
[28] = Toxicity in female Beagle dog assessed as change in AST level at 100 mg/kg, po QD for 7 days relative to baseline pretreatment; format: organism-based, Canis lupus familiaris; conditions: in vivo, 168 h, time 7 day
[29] = Toxicity in female Beagle dog assessed as change in ALT level at 100 mg/kg, po QD for 7 days relative to baseline pretreatment; format: organism-based, Canis lupus familiaris; conditions: in vivo, 168 h, time 7 day
[30] = Toxicity in female Beagle dog assessed as change in ALP level at 100 mg/kg, po QD for 7 days relative to baseline pretreatment; format: organism-based, Canis lupus familiaris; conditions: in vivo, 168 h, time 7 day
[31] = Toxicity in female Beagle dog assessed as change in GLDH level at 100 mg/kg, po QD for 7 days relative to baseline pretreatment; format: organism-based, Canis lupus familiaris; conditions: in vivo, 168 h, time 7 day
[32] = Toxicity in female Beagle dog assessed as change in TBA level at 100 mg/kg, po QD for 7 days relative to baseline pretreatment; format: organism-based, Canis lupus familiaris; conditions: in vivo, 168 h, time 7 day
[33] = Half life in Beagle dog plasma at 5 mg/kg,SC and measured after 21 days by LC-MS/MS analysis; format: ADME, organism-based, Canis lupus familiaris; conditions: time 21 day
[34] = Half life in Beagle dog plasma at 5 mg/kg,IM and measured after 21 days by LC-MS/MS analysis; format: ADME, organism-based, Canis lupus familiaris; conditions: time 21 day
[35] = Toxicity in male Beagle dog assessed as increase in mitotic figures in hepatocytes at 100 mg/kg, po QD for 7 days by microscopy; format: organism-based, Canis lupus familiaris; conditions: in vivo, 168 h, time 7 day
[36] = Toxicity in male Beagle dog assessed as hyperplasia of Kupffer cells at 100 mg/kg, po QD for 7 days by microscopy; format: organism-based, Canis lupus familiaris; conditions: in vivo, 168 h, time 7 day
[37] = Drug metabolism in Beagle dog plasma assessed as metabolite formation at 100 mg/kg, po for 7 days by LC-MS/MS analysis; format: ADME, organism-based, Canis lupus familiaris; conditions: in vivo, 168 h, time 7 day

C[C@@H]1CN(c2ccc3c(=O)n(-c4ccc(Cl)c5c(NS(C)(=O)=O)nn(C)c45)c([C@H](Cc4cc(F)cc(F)c4)NC(=O)Cn4nc(C(F)F)c5c4C(F)(F)[C@@H]4C[C@H]54)nc3c2)C[C@H](C)O1
EC50 [1]: 39 pM | clearance [2]: 8.9 mL/min/kg | solubility [3]: < 1 µg/mL | solubility [4]: < 1 µg/mL | solubility [5]: < 1 µg/mL | solubility [6]: < 1 µg/mL | solubility [7]: 22 µg/mL (≈ 24 µM) | concentration at 504 h [8]: 10 ng/mL | concentration at 504 h [9]: 10 ng/mL | concentration at 240 h [10]: < 2.2 ng/mL | concentration at 240 h [11]: < 2.2 ng/mL | half-life [12]: 3.2 h | half-life [13]: 39 h | half-life [14]: 39 h | AUC at 24 h [15]: 3710 ng·h/mL | AUC at 24 h [16]: 1360 ng·h/mL | AUC at 168 h [17]: 299000 ng·h/mL | AUC at 168 h [18]: 6780 ng·h/mL | Cmax [19]: 451 ng/mL | Cmax [20]: 344 ng/mL | Cmax [21]: 13600 ng/mL | Cmax [22]: 1320 ng/mL | fold change (FC) [23]: 4.8 | fold change (FC) [24]: 87 | fold change (FC) [25]: 4.9 | fold change (FC) [26]: 94 | fold change (FC) [27]: 3 | Activity [28]: Non-Toxic | Activity [29]: Non-Toxic | Activity [30]: Non-Toxic | Activity [31]: Non-Toxic | Activity [32]: Non-Toxic | half-life [33]: 39 h | half-life [34]: 39 h | Activity [35]: Toxic | Activity [36]: Toxic | Drug metabolism [37]: Metabolite_Detected
